Patent publication US9120839B2, “Ursolic acid derivative and method for preparing same” (Nexoligo Co., Ltd., priority 2012, dated 2015)
Like-named read-outs stand apart in the source and are kept apart here.

What was measured:
[1] = background statement on ursolic acid; cited from earlier work
[2] = Pharmacokinetic animal test on Sprague Dawley (SD) rat, ursolic acid concentration in blood plasma; type: in vivo; settings: male, intravenous administration, dose 0.5 (mg/kg per Table 1), SD rats
Experimental: Pharmacokinetic Animal Test on Sprague Dawley (SD) Rat, Using Ursolic Acid and Ursolic Acid Derivatives of Examples
• Ursolic acid derivative of Examples (5-methyl-2-oxo-1,3-dioxole-4-yl)methyl 3β-hydroxyl-urs-12-en-28-oate was used.
The ursolic acid was single-intravenously administered on SD rats and the ursolic acid derivative of Example 2 was orally administered, then blood collection was performed each time, and concentration of the test substance in blood was analyzed. Accordingly, bioavailability of the ursolic acid and ursolic acid derivatives of Examples were measured and compared with each other.
i) Control substance (Intravenous Administration): Ursolic Acid (UA) (HPLC purity of 99.0% or more/area percentage)
ii) Test substance (Oral Administration) Ursolic acid derivative of Example 2 (HPLC purity of 99.4% or more/area percentage)
The control substance for intravenous administration was diluted with 0.9% saline which was sterilized and sealed to be prepared in 0.5 mg/mL. […]
(3) Calculation of Injection Amount: The injection amount was calculated to be 1.0 or 2.0 mL/kg, on the basis of the recently measured body weight before the administration. […]
Concentration of ursolic acid in the blood plasma of the rats was measured. […]

[3] = rats, from Paper 1; cited from earlier work

AUC(0-t) [2] [ng·h/mL] | Cmax [2] [ng/mL] | SMILES | oral absorptivity [1] | oral absorptivity [3]
114 | 378 | C[C@H]1[C@H](C)CC[C@]2(C(=O)O)CC[C@]3(C)C(=CC[C@@H]4[C@@]5(C)CC[C@H](O)C(C)(C)[C@@H]5CC[C@]43C)[C@H]12 [Ursolic Acid, 3β-hydroxy-urs-12-en-28-oic acid] | less than 1% | 
 |  | CC1(C)CC[C@]2(C(=O)O)CC[C@]3(C)C(=CC[C@@H]4[C@@]5(C)CC[C@H](O)C(C)(C)[C@@H]5CC[C@]43C)[C@@H]2C1 [oleanolic acid] |  | about 0.7%
